Earlier results, collected in patent US10662178B2, “Crystalline form of Olaparib” (Apotex Inc., priority 2018, dated 2020).

Settings: CHMP Assessment Report EMEA/H/C/003726/0000

Biopharmaceutics Classification System (BCS) class: Class IV
solubility (drug substance in the approved drug product LYNPARZA): low solubility
SMILES: O=C(c1cc(Cc2n[nH]c(=O)c3ccccc23)ccc1F)N1CCN(C(=O)C2CC2)CC1 [Olaparib, 4-[(3-{[4-(cyclopropylcarbonyl)-piperazin-1-yl]carbonyl}-4-fluorophenyl)methyl]phthalazin-1(2H)-one]
